Converted amounts (≈) assume the structure as drawn. Structures can show the parent of a compound that is named as a salt. Where two headings read alike, the source gives them in different places.
What was measured:
Assay in all cases: Antibacterial activity, microbroth dilution method (MIC)
[1] = tested on: Gram-positive Staphylococcus aureus (S. aureus) 29213; assay type: cell-based; details: Staphylococcus aureus, Gram-positive S. aureus 29213
Procedure, shortened: (§1)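 Microbroth dilution was used. MIC, in μg/mL, is the lowest drug concentration preventing macroscopically visible growth under the test conditions.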

[2] = tested on: super sensitive Gram-negative Escherichia coli (E. coli) BAS849; assay type: cell-based; details: Escherichia coli, read-out: MIC, E. coli BAS849
Procedure, shortened: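 Values are MICs (μg/mL): the smallest drug amount at which macroscopically visible bacterial growth is absent under assay conditions, from a microdilution method in broth.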

[3] = tested on: control Gram-negative E. coli 25922 strain; assay type: cell-based, Escherichia coli; details: Escherichia coli
Procedure, shortened: as §1

[4] = super sensitive Gram-negative E. coli BAS849, microbroth dilution

| Structure (SMILES) | MIC [1] [µg/mL] | MIC [2] [µg/mL] | MIC [3] [µg/mL] | MIC [2, 4] [µg/mL] |
| --- | --- | --- | --- | --- |
| CCNCCc1cc2cc3c(cc2n1C)C=CCc1c-3[nH]c(=O)c(C(=O)O)c1O.O=C(O)C(F)(F)F [Cpd 164, 10-(2-(ethylamino)ethyl)-4-hydroxy-9-methyl-2-oxo-1,2,5,9-tetrahydropyrido[3′,2′:6,7]cyclohepta[1,2-f]indole-3-carboxylic acid trifluoroacetate] | 12.5 to 150 | < 1 | 1 to 3.5 |  |
| CCNCc1cc2c3c(ccc2n1C)-c1[nH]c(=O)c(C(=O)O)c(O)c1CCC3.Cl [Cpd 61, 2-((ethylamino)methyl)-7-hydroxy-1-methyl-9-oxo-1,4,5,6,9,10-hexahydropyrido[2′,3′:3,4]cyclohepta[1,2-e]indole-8-carboxylic acid hydrochloride] | 12.5 to 150 |  | 3.5 to 12.5 | 3.5 to 12.5 |
| CC1CCc2c([nH]c(=O)c(C(=O)O)c2O)-c2cc3cc(CNC4(C)CC4)n(C)c3cc21.Cl (stereo not drawn) [Cpd 66, 4-hydroxy-7,9-dimethyl-10-(((1-methylcyclopropyl)amino)methyl)-2-oxo-1,2,5,6,7,9-hexahydropyrido[3′,2′:6,7]cyclohepta[1,2-f]indole-3-carboxylic acid hydrochloride] | 3.5 to 12.5 |  | 12.5 to 150 | 1 to 3.5 |
| Cl.Cn1c(CNC(C)(C)C)cc2cc3c(cc21)NCCc1c-3[nH]c(=O)c(C(=O)O)c1O [Cpd 102, 10-((tert-butylamino)methyl)-4-hydroxy-9-methyl-2-oxo-1,2,5,6,7,9-hexahydropyrido[2′,3′:4,5]azepino[3,2-f]indole-3-carboxylic acid hydrochloride] | 12.5 to 150 |  | 3.5 to 12.5 | 1 to 3.5 |
| CC1Cc2cc(N(C)C)ccc2-c2[nH]c(=O)c(C(=O)O)c(O)c21 (stereo not drawn) [Cpd 108, 8-(dimethylamino)-4-hydroxy-5-methyl-2-oxo-1,2,5,6-tetrahydrobenzo[h]quinoline-3-carboxylic acid] | 3.5 to 12.5 (≈ 11.1 to 39.8 µM) |  | 12.5 to 150 (≈ 39.8 to 477 µM) | < 1 |
| CN(C)CCNc1ccc2c(c1)CCCc1c-2[nH]c(=O)c(C(=O)O)c1O.Cl [Cpd 113, 9-((2-(dimethylamino)ethyl)amino)-4-hydroxy-2-oxo-2,5,6,7-tetrahydro-1H-benzo[6,7]cyclohepta[1,2-b]pyridine-3-carboxylic acid hydrochloride] | 12.5 to 150 |  | 12.5 to 150 | 3.5 to 12.5 |
| CNCc1cc2cc3c(cc2n1C)OCCc1c-3[nH]c(=O)c(C(=O)O)c1O.Cl [Cpd 88, 4-hydroxy-9-methyl-10-((methylamino)methyl)-2-oxo-2,5,6,9-tetrahydro-1H-pyrido[2′,3′:4,5]oxepino[3,2-f]indole-3-carboxylic acid hydrochloride] | 12.5 to 150 |  | 1 to 3.5 | < 1 |
| Cl.Cn1c(CN2CCCC2)cc2cc3c(cc21)OCCc1c-3[nH]c(=O)c(C(=O)O)c1O [Cpd 174, 4-hydroxy-9-methyl-2-oxo-10-(pyrrolidin-1-ylmethyl)-2,5,6,9-tetrahydro-1H-pyrido[2′,3′:4,5]oxepino[3,2-f]indole-3-carboxylic acid hydrochloride] | 12.5 to 150 |  | 1 to 3.5 | < 1 |
| CN(C)CCNCc1cc2cc3c(cc2n1C)OCCc1c-3[nH]c(=O)c(C(=O)O)c1O.Cl.Cl [Cpd 182, 10-(((2-(dimethylamino)ethyl)amino)methyl)-4-hydroxy-9-methyl-2-oxo-2,5,6,9-tetrahydro-1H-pyrido[2′,3′:4,5]oxepino[3,2-f]indole-3-carboxylic acid dihydrochloride] | 12.5 to 150 |  | 12.5 to 150 | 1 to 3.5 |
| COCC(C)NCc1cc2cc3c(cc2n1C)OCCc1c-3[nH]c(=O)c(C(=O)O)c1O.Cl (stereo not drawn) [Cpd 184, 4-hydroxy-10-(((1-methoxypropan-2-yl)amino)methyl)-9-methyl-2-oxo-2,5,6,9-tetrahydro-1H-pyrido[2′,3′:4,5]oxepino[3,2-f]indole-3-carboxylic acid hydrochloride] | 12.5 to 150 |  | 3.5 to 12.5 | < 1 |
| CNCc1cc2cc3c(cc2n1C)NCCCc1c-3[nH]c(=O)c(C(=O)O)c1O.Cl [Cpd 103, 4-hydroxy-10-methyl-11-((methylamino)methyl)-2-oxo-2,5,6,7,8,10-hexahydro-1H-pyrido[2′,3′:4,5]azocino[3,2-f]indole-3-carboxylic acid hydrochloride] | 12.5 to 150 |  | 12.5 to 150 | 1 to 3.5 |
| CN(C)C1CCN(c2ccc3c(c2)OCCc2c-3[nH]c(=O)c(C(=O)O)c2O)C1.Cl (stereo not drawn) [Cpd 78, 9-(3-(dimethylamino)pyrrolidin-1-yl)-4-hydroxy-2-oxo-1,2,5,6-tetrahydrobenzo[2,3]oxepino[4,5-b]pyridine-3-carboxylic acid hydrochloride] | 12.5 to 150 |  | 12.5 to 150 | 1 to 3.5 |
| CCNCc1cc2cc3c(cc2n1C)[C@H](O)[C@H](O)Cc1c-3[nH]c(=O)c(C(=O)O)c1O.Cl (relative stereo) [Cpd 71, (cis)-10-((ethylamino)methyl)-4,6,7-trihydroxy-9-methyl-2-oxo-1,2,5,6,7,9-hexahydropyrido[3′,2′:6,7]cyclohepta[1,2-f]indole-3-carboxylic acid hydrochloride] | 12.5 to 150 |  | 12.5 to 150 | 12.5 to 150 |
| Cl.Cn1c(CNC(C)(C)C)cc2cc3c(cc21)CCCc1cc(C(=O)O)c(=O)[nH]c1-3 [Cpd 56, 10-((tert-butylamino)methyl)-9-methyl-2-oxo-1,2,5,6,7,9-hexahydropyrido[3′,2′:6,7]cyclohepta[1,2-f]indole-3-carboxylic acid hydrochloride] | 12.5 to 150 |  | 1 to 3.5 | < 1 |
| CCCCCCNCc1cc2cc3c(cc2n1C)CCCc1c-3[nH]c(=O)c(C(=O)O)c1O.Cl [Cpd 138, 10-((hexylamino)methyl)-4-hydroxy-9-methyl-2-oxo-1,2,5,6,7,9-hexahydropyrido[3′,2′:6,7]cyclohepta[1,2-f]indole-3-carboxylic acid hydrochloride] | 1 to 3.5 |  | 1 to 3.5 | < 1 |
| CN(C)C1CCN(c2ccc3c(c2)NCCc2c-3[nH]c(=O)c(C(=O)O)c2O)C1.Cl (stereo not drawn) [Cpd 95, 9-(3-(dimethylamino)pyrrolidin-1-yl)-4-hydroxy-2-oxo-2,5,6,7-tetrahydro-1H-benzo[b]pyrido[2,3-d]azepine-3-carboxylic acid hydrochloride] | 12.5 to 150 |  | 3.5 to 12.5 | 3.5 to 12.5 |
| Cl.Cn1c(CNC2(C)CC2)cc2cc3c(cc21)CCCc1c-3[nH]c(=O)c(C(=O)O)c1O [Cpd 33, 4-hydroxy-9-methyl-10-(((1-methylcyclopropyl)amino)methyl)-2-oxo-1,2,5,6,7,9-hexahydropyrido[3′,2′:6,7]cyclohepta[1,2-f]indole-3-carboxylic acid hydrochloride] | 3.5 to 12.5 |  | < 1 | < 1 |
| CCNCc1cc2cc3c(cc2n1C)CCCc1cc(C(=O)O)c(=O)[nH]c1-3.Cl [Cpd 54, 10-((ethylamino)methyl)-9-methyl-2-oxo-1,2,5,6,7,9-hexahydropyrido[3′,2′:6,7]cyclohepta[1,2-f]indole-3-carboxylic acid hydrochloride] | 12.5 to 150 |  | < 1 | < 1 |
| Cl.Cl.Cn1c(CNCCN2CCCC2)cc2cc3c(cc21)OCCc1c-3[nH]c(=O)c(C(=O)O)c1O [Cpd 179, 4-hydroxy-9-methyl-2-oxo-10-(((2-(pyrrolidin-1-yl)ethyl)amino)methyl)-2,5,6,9-tetrahydro-1H-pyrido[2′,3′:4,5]oxepino[3,2-f]indole-3-carboxylic acid dihydrochloride] | 12.5 to 150 |  | 12.5 to 150 | 12.5 to 150 |
| CC1Cc2cc(N3C[C@@H]4[C@@H](N)[C@@H]4C3)ccc2-c2[nH]c(=O)c(C(=O)O)c(O)c21 (stereo partly drawn) [Cpd 110, 8-((cis,cis)-6-amino-3-azabicyclo[3.1.0]hexan-3-yl)-4-hydroxy-5-methyl-2-oxo-1,2,5,6-tetrahydrobenzo[h]quinoline-3-carboxylic acid trifluoroacetate] | 12.5 to 150 | 3.5 to 12.5 | 12.5 to 150 |  |
| CC(CN(C)C)NCc1cc2cc3c(cc2n1C)CCCc1c-3[nH]c(=O)c(C(=O)O)c1O.Cl.Cl (stereo not drawn) [Cpd 160, 10-(((1-(dimethylamino)propan-2-yl)amino)methyl)-4-hydroxy-9-methyl-2-oxo-1,2,5,6,7,9-hexahydropyrido[3′,2′:6,7]cyclohepta[1,2-f]indole-3-carboxylic acid dihydrochloride] | 12.5 to 150 |  | 3.5 to 12.5 | < 1 |
| CCCCCCCCNCc1cc2cc3c(cc2n1C)CCCc1c-3[nH]c(=O)c(C(=O)O)c1O.Cl [Cpd 140, 4-hydroxy-9-methyl-10-((octylamino)methyl)-2-oxo-1,2,5,6,7,9-hexahydropyrido[3′,2′:6,7]cyclohepta[1,2-f]indole-3-carboxylic acid hydrochloride] | 1 to 3.5 |  | 12.5 to 150 | < 1 |
| CCNCc1cc2cc3c(cc2n1C)NCCCc1c-3[nH]c(=O)c(C(=O)O)c1O.Cl [Cpd 104, 11-((ethylamino)methyl)-4-hydroxy-10-methyl-2-oxo-2,5,6,7,8,10-hexahydro-1H-pyrido[2′,3′:4,5]azocino[3,2-f]indole-3-carboxylic acid hydrochloride] | 12.5 to 150 |  | 3.5 to 12.5 | 1 to 3.5 |
| Cn1c2c(c(O)c(C(=O)O)c1=O)CCCc1cc3c(ccn3C)cc1-2 [Cpd 134, 4-hydroxy-1,9-dimethyl-2-oxo-1,2,5,6,7,9-hexahydropyrido[3′,2′:6,7]cyclohepta[1,2-f]indole-3-carboxylic acid] | 3.5 to 12.5 (≈ 10.3 to 36.9 µM) |  | 12.5 to 150 (≈ 36.9 to 443 µM) | < 1 |

— patent US20150038438A1, “ANTIBACTERIAL COMPOUNDS AND METHODS FOR USE” (PTC THERAPEUTICS, INC., priority 2011, published 2015)
